In patent US8772235B2, “Compounds having peptides conjugated to bone targeting moieties and methods of making and using thereof” (The Governors of the University of Alberta, priority 2009, dated 2014):

Legend:
[1] = Circular dichroism, secondary structure of sCT, sCT-PEG and sCT-PEG-BP; type: physicochemical; details: 20 mM acetate buffer pH 5.0, ~400 μg/mL sCT or equivalent
Procedure: For a more detailed analysis of the influence of structural alteration of sCT on secondary structure of sCT analogue, the circular dichroism (CD) spectrum of sCT, sCT-PEG and sCT-PEG-BP was measured in the 20 mM acetate buffer pH 5.0. CD spectra were obtained with a ConvCD spectrophotometer instrument. Spectra were acquired over a wavelength range of 190 to 260 nm. The N2 flow rate was set at 5 l/min. The sample cuvette (100 μL) was cleaned with 20 mM Sodium Acetate buffer pH 5, and the spectra of test samples, which comprised of ˜400 μg/mL of sCT or equivalent the same buffer, were recorded with the corresponding buffer serving as blanks.

[2] = Bone mineral specificity: calcium carbonate binding assay; details: 1 h, 100 mM phosphate buffer pH 7
Procedure: (§1) Bone targeting potential of sCT analogue was evaluated by determining the effect of sCT modification (due to chemical coupling) upon its bone mineral affinity. Specific volume of purified sCT analogue solution containing 10 μg of sCT was mixed with 1 mg Hydroxyapatite (HA) in 150 μL 100 mM phosphate buffer (pH 7.0) in microcentrifuge tubes in duplicate to give a final concentration of 66.67 μg/ml sCT. As a reference, control samples were incubated in tubes without HA (i.e., 0% of binding).
(§2) The tubes were incubated at room temperature on a shaker for 1 h, and centrifuged at 5000 g for 5 minutes to separate the HA from the supernatant. sCT concentration in the supernatant was determined using the BCA microprotein assay (Pierce, USA) as described above. HA centrifugate remaining after removal of supernatant was washed five times using 1 mL buffer each time and the last washing after centrifugation at 5000 g for 5 minutes was collected. Both the washings and the HA centrifugate were then analyzed for sCT as described above. The amount of sCT in the supernatant, washings and HA centrifugate was then inferred by measuring the absorbance at 562 nm, with a value of 100% for control samples without HA.
(§3) Bone mineral specificity of sCT analogue was then determined in the above manner using HA, calcium carbonate, calcium pyrophosphate, tricalcium phosphate and calcium oxalate.

[3] = Bone mineral specificity: calcium oxalate binding assay; details: 1 h, 100 mM phosphate buffer pH 7
Procedure: as §1, §2, §3

[4] = Hydroxyapatite (HA) binding assay, bone mineral affinity; details: 10 μg sCT, 1 mg HA, 1 h, 100 mM phosphate buffer pH 7.0
Procedure: as §1, §2

[5] = ELISA: anti-calcitonin antibody epitope binding on calcium phosphate coated plate (PEG series); details: 1 μg/well, OD 650 nm
Procedure: sCT or sCT analogues equivalent to 1 μg/well were added in Calcium Phosphate coated Osteoclast Activity Assay Substrate plate (OCT USA, Inc.) in duplicate and the binding of BP to the calcium phosphate was allowed for 1 hours in the presence of 100 μl 100 mM Sodium Phosphate buffer pH 7. Plates were then washed three times with the same buffer containing 0.05% v/v Tween 80 (PBST). To avoid nonspecific binding, the wells were incubated with 3% w/v Bovine Serum Albumin for 1 h at room temperature. After washings, the wells were incubated with […] of 1:5000 diluted rabbit anti-salmon calcitonin primary monoclonal antibodies (US Biologicals, USA) for 1 h at room temperature. The wells were then washed three times with PBST and the bound antibodies were detected using secondary antibody, 1:5000 diluted goat anti-rabbit IgG conjugated with horseradish peroxidase (GAM-HRPO) for 1 h at room temperature. After final washings, 100 μl of 3,3′,5,5′-tetramethylbenzidine (TMB substrate) was added to each well and incubated for 15 min at room temperature. The optical density (OD) was measured at 650 nm using an ELISA Vmax kinetic microplate reader (Molecular Devices Corp., California, and USA).

[6] = Effect on plasma phosphate level in normal rats (PEG series); type: in vivo, rat; details: 20 IU sCT/kg equivalent, subcutaneous
Procedure: (§4) Pharmacodynamic response of sCT analogue was evaluated by analyzing plasma calcium concentration in the rat model. Sprague Dawley female rats weighing 230-260 g (about 6 weeks old) were purchased from Charles River, USA and housed at the University of Alberta Animal Holding Unit. All experimental protocols were approved by the Animals Ethics Committee of the University of Alberta. The rats were divided randomly into five groups of 3 animals each and the pharmacodynamic response was assessed following subcutaneous administration of the sCT or analogue equivalent to 20 IU sCT/kg body weight. Rats were anesthetized using Isoflurane inhalation anesthesia and the 200 μl blood samples were obtained in heparinized Eppendorf microtubes before drug injection. Then 100 μl of sCT or equivalent dose in 20 mM Sodium Acetate buffer pH 5 was injected and the blood samples were collected 1, 2, 3 and 4 hrs post injection from jugular vein. Blood plasma was obtained by centrifuging the samples at 5000 rpm for 10 min and collecting the supernatant. Plasma calcium level was assayed by QuantiChrom™ Calcium Assay Kit (BioAssay Systems, CA USA) and the plasma phosphate level was assayed by QuantiChrom™ Phosphate Assay Kit (BioAssay Systems, CA USA).

[7] = Bone mineral specificity: calcium pyrophosphate binding assay; details: 1 h, 100 mM phosphate buffer pH 7
Procedure: as §1, §2, §3

[8] = Bone mineral specificity: tri-calcium phosphate binding assay; details: 1 h, 100 mM phosphate buffer pH 7
Procedure: as §1, §2, §3

[9] = Effect on plasma calcium level in normal rats (PEG series); type: in vivo, rat; details: 20 IU sCT/kg equivalent, subcutaneous
Procedure: as §4

[10] = target: serum albumin (Homo sapiens, UniProt P02768); details: systemically administered; cited from earlier work
[11] = Effect on plasma calcium level in normal rats (SMCC series); type: in vivo, rat; details: 20 IU sCT/kg equivalent, subcutaneous
Procedure: as §4, with “5 was sub cu injected and” for “5 was injected and”

[12] = first hour, vs acetate buffer controls

For “Salmon calcitonin [sCT, reference compound]”, the “secondary structure by CD spectrum” value [1] was “random coil conformation”, the “sCT concentration in supernatant after incubation with Calcium carbonate” value [2] was “did not significantly reduce the sCT concentration in the supernatant” and the “sCT recovered in supernatant after incubation with Calcium oxalate” value [3] was “did not significantly reduce the sCT concentration in the supernatant”. For the same substance, the “sCT bound in HA” value [4] was “did not significantly bind to HA”, the “detection in ELISA after binding to calcium phosphate plate” value [5] was “not significantly detected” and the “percentage of plasma phosphate reduction” value ([6]; 4 hour post dosing) was 15.7±3.7%. For the same substance, the “percentage of plasma phosphate reduction” value [6, 12] was 22.1±6.24%, the “percentage of plasma phosphate reduction” value ([6]; second hour) was 22.7±13.01% and the “sCT recovered in supernatant after incubation with Calcium Pyrophosphate” value [7] was “did not significantly reduce the sCT concentration in the supernatant”. The “sCT bound to Tri-Calcium Phosphate” value [8] was “no significant difference in the affinity”, the “percentage of plasma calcium reduction” value ([9]; 4 hour post dosing) was 33.1±2.1% and the “percentage of plasma calcium reduction” value [9, 12] was 20.4±5.5%. The “percentage of plasma calcium reduction” value ([9]; second hour) was 29.9±4.9%, the “serum albumin bound in circulation” value [10] was 40% and the “percentage of plasma calcium reduction” value ([11]; 4 hour post dosing) was 32.03±2.11%. The “percentage of plasma calcium reduction” value [11, 12] was 20.33±5.5%, the “percentage of plasma calcium reduction” value ([11]; second hour) was 28.98±4.65% and the “percentage of plasma calcium reduction” value ([11]; third hour) was 29.85±4.11%.
